In patent US20240083853A1, “HSD17B13 INHIBITORS AND USES THEREOF” (FL2022-001, Inc., priority 2020, published 2024):

The compounds below were run against T1, Recombinant human HSD17B13 enzyme (Homo sapiens, UniProt Q7Z5P4) (assay: HSD17b13 NAD(P)H-Glo biochemical assay). Conditions: 50 uM estradiol, 1 mM NAD+, NAD(P)H-Glo luminescence; read-out: HSD17β13 IC50.
T1 sequence (Q7Z5P4 20-300): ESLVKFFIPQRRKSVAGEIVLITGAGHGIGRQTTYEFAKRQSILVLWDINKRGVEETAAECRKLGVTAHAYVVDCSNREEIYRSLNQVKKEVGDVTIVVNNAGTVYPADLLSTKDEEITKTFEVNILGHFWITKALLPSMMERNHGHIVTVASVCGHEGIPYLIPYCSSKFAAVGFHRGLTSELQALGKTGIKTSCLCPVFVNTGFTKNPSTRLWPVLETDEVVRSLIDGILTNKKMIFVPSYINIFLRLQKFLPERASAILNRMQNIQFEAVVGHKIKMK
Protocol: Example B-1: HSD17b13 NAD(P)H-Glo Biochemical Assay
Recombinant human HSD17B13 enzyme. Substrate: estradiol (Sigma β-Estradiol E8875), 100 mM in DMSO. Cofactor: NAD+ Grade I free acid (Sigma 10127965001), 20 mM in H2O. Assay buffer final concentration: 20 mM Tris pH7.4 with 0.002% Tween-20 and 0.02% BSA. Assay performed in 384 well solid bottom plate (Corning 3570). Enzymatic activity detected by NAD(P)H-Glo™ Detection System (Promega G9062).
Inhibitor compounds were serially diluted in DMSO and then further diluted in assay buffer to a 10× concentration consisting of 1% DMSO.
HSD17b13 enzyme was diluted in 1× assay buffer to the desired enzyme concentration based on the specific activity of the enzyme lot. 20 uL of diluted enzyme was added to each well along with 2.5 uL of 10× inhibitor solution. Assay plate was incubated at RT for 20 minutes, and then 2.5 uL of a 10× substrate/cofactor mix was added to each well for a final concentration of 50 uM estradiol and 1 mM NAD+. Assay plate was incubated at 37° C. for 3 hours. NAD(P)H-Glo™ Detection System reagents were prepared according to manufacturer's specifications, and 25 uL was added to each well. After incubating for 1 hour at RT, luminescence was measured.
`Oc1cc2c(cnn2-c2ccc(-c3ccccc3F)cc2)cc1F` [Compound 13.3, 5-Fluoro-1-(2′-fluoro-[1,1′-biphenyl]-4-yl)-1H-indazol-6-ol] showed an IC50 of 100 to 1000 nM.
With `Oc1cc2c(cnn2-c2ccc(-c3cccc(F)c3)cc2)cc1F` [Compound 13.4, 5-Fluoro-1-(3′-fluoro-[1,1′-biphenyl]-4-yl)-1H-indazol-6-ol] the IC50 was 100 to 1000 nM.
Compound `Oc1cc2c(cnn2-c2ccc(-c3ccc(F)cc3)cc2)cc1F` [Compound 13.5, 5-Fluoro-1-(4′-fluoro-[1,1′-biphenyl]-4-yl)-1H-indazol-6-ol] has an IC50 of 100 to 1000 nM.
Compound `Oc1cc2c(cnn2-c2ccc(-c3ccccc3Cl)cc2)cc1F` [Compound 13.6, 1-(2′-Chloro-[1,1′-biphenyl]-4-yl)-5-fluoro-1H-indazol-6-ol] has an IC50 of 100 to 1000 nM.
With `Oc1cc2c(cnn2-c2ccc(-c3cccc(Cl)c3)cc2)cc1F` [Compound 13.7, 1-(3′-Chloro-[1,1′-biphenyl]-4-yl)-5-fluoro-1H-indazol-6-ol] the IC50 was 100 to 1000 nM.
For `Oc1cc2c(cnn2-c2ccc(-c3ccc(Cl)cc3)cc2)cc1F` [Compound 13.8, 1-(4′-Chloro-[1,1′-biphenyl]-4-yl)-5-fluoro-1H-indazol-6-ol], the IC50 was 100 to 1000 nM.
Compound `Cc1ccccc1-c1ccc(-n2ncc3cc(F)c(O)cc32)cc1` [Compound 13.9, 5-Fluoro-1-(2′-methyl-[1,1′-biphenyl]-4-yl)-1H-indazol-6-ol] has an IC50 of 100 to 1000 nM.
Work on `Cc1cccc(-c2ccc(-n3ncc4cc(F)c(O)cc43)cc2)c1` [Compound 13.10, 5-Fluoro-1-(3′-methyl-[1,1′-biphenyl]-4-yl)-1H-indazol-6-ol] yielded an IC50 of 100 to 1000 nM.
`Cc1ccc(-c2ccc(-n3ncc4cc(F)c(O)cc43)cc2)cc1` [Compound 13.11, 5-Fluoro-1-(4′-methyl-[1,1′-biphenyl]-4-yl)-1H-indazol-6-ol] showed an IC50 of 100 to 1000 nM.
`Oc1cccc(-c2ccc(-n3ncc4cc(F)c(O)c(F)c43)cc2)c1` [Compound 13.12, 5,7-Difluoro-1-(3′-hydroxy-[1,1′-biphenyl]-4-yl)-1H-indazol-6-ol] was tested, and the IC50 was < 100 nM.
Compound `Oc1cc2c(cnn2-c2ccc(-c3ccccn3)cc2)cc1F` [Compound 13.13, 5-Fluoro-1-(4-(pyridin-2-yl)phenyl)-1H-indazol-6-ol] has an IC50 of 1000 to 30000 nM.
`N#Cc1ccccc1-c1ccc(-n2ncc3cc(F)c(O)cc32)cc1` [Compound 13.16, 4′-(5-Fluoro-6-hydroxy-1H-indazol-1-yl)-[1,1′-biphenyl]-2-carbonitrile] was tested, and the IC50 was 100 to 1000 nM.
With `N#Cc1cccc(-c2ccc(-n3ncc4cc(F)c(O)cc43)cc2)c1` [Compound 13.17, 4′-(5-Fluoro-6-hydroxy-1H-indazol-1-yl)-[1,1′-biphenyl]-3-carbonitrile] the IC50 was 100 to 1000 nM.
`N#Cc1ccc(-c2ccc(-n3ncc4cc(F)c(O)cc43)cc2)cc1` [Compound 13.18, 4′-(5-Fluoro-6-hydroxy-1H-indazol-1-yl)-[1,1′-biphenyl]-4-carbonitrile] was tested, and the IC50 was < 100 nM.
With `Oc1cc(-c2ccc(-n3ncc4cc(F)c(O)c(F)c43)cc2)ccc1Cl` [Compound 13.19, 1-(4′-Chloro-3′-hydroxy-[1,1′-biphenyl]-4-yl)-5,7-difluoro-1H-indazol-6-ol] the IC50 was < 100 nM.
In the case of `COc1cccc(-c2ccc(-n3ncc4cc(F)c(O)cc43)cc2)c1` [Compound 13.20, 5-Fluoro-1-(3′-methoxy-[1,1′-biphenyl]-4-yl)-1H-indazol-6-ol], the IC50 is reported as 100 to 1000 nM.
`COc1ccc(-c2ccc(-n3ncc4cc(F)c(O)cc43)cc2)cc1` [Compound 13.21, 5-Fluoro-1-(4′-methoxy-[1,1′-biphenyl]-4-yl)-1H-indazol-6-ol] gave an IC50 of 100 to 1000 nM.
Compound `OCc1cccc(-c2ccc(-n3ncc4cc(F)c(O)cc43)cc2)c1` [Compound 13.22, 5-Fluoro-1-(3′-(hydroxymethyl)-[1,1′-biphenyl]-4-yl)-1H-indazol-6-ol] has an IC50 of 1000 to 30000 nM.
Work on `OCc1ccc(-c2ccc(-n3ncc4cc(F)c(O)cc43)cc2)cc1` [Compound 13.23, 5-Fluoro-1-(4′-(hydroxymethyl)-[1,1′-biphenyl]-4-yl)-1H-indazol-6-ol] yielded an IC50 of 100 to 1000 nM.
In the case of `CS(=O)(=O)c1ccccc1-c1ccc(-n2ncc3cc(F)c(O)cc32)cc1` [Compound 13.24, 5-Fluoro-1-(2′-(methylsulfonyl)-[1,1′-biphenyl]-4-yl)-1H-indazol-6-ol], the IC50 is reported as 1000 to 30000 nM.
Compound `CS(=O)(=O)c1cccc(-c2ccc(-n3ncc4cc(F)c(O)cc43)cc2)c1` [Compound 13.25, 5-Fluoro-1-(3′-(methylsulfonyl)-[1,1′-biphenyl]-4-yl)-1H-indazol-6-ol] has an IC50 of 100 to 1000 nM.
`CS(=O)(=O)c1ccc(-c2ccc(-n3ncc4cc(F)c(O)cc43)cc2)cc1` [Compound 13.26, 5-Fluoro-1-(4′-(methylsulfonyl)-[1,1′-biphenyl]-4-yl)-1H-indazol-6-ol] gave an IC50 of 100 to 1000 nM.
In the case of `Nc1cccc(-c2ccc(-n3ncc4cc(F)c(O)cc43)cc2)c1` [Compound 13.27, 1-(3′-Amino-[1,1′-biphenyl]-4-yl)-5-fluoro-1H-indazol-6-ol], the IC50 is reported as 1000 to 30000 nM.
Compound `Nc1ccc(-c2ccc(-n3ncc4cc(F)c(O)cc43)cc2)cc1` [Compound 13.28, 1-(4′-Amino-[1,1′-biphenyl]-4-yl)-5-fluoro-1H-indazol-6-ol] has an IC50 of 100 to 1000 nM.
With `O=C(O)c1cccc(-c2ccc(-n3ncc4cc(F)c(O)cc43)cc2)c1` [Compound 13.29, 4′-(5-Fluoro-6-hydroxy-1H-indazol-1-yl)-[1,1′-biphenyl]-3-carboxylic acid] the IC50 was 1000 to 30000 nM.
With `O=C(O)c1ccc(-c2ccc(-n3ncc4cc(F)c(O)cc43)cc2)cc1` [Compound 13.30, 4′-(5-Fluoro-6-hydroxy-1H-indazol-1-yl)-[1,1′-biphenyl]-4-carboxylic acid] the IC50 was 1000 to 30000 nM.
In the case of `CC(=O)Nc1cccc(-c2ccc(-n3ncc4cc(F)c(O)cc43)cc2)c1` [Compound 13.31, N-(4′-(5-Fluoro-6-hydroxy-1H-indazol-1-yl)-[1,1′-biphenyl]-3-yl)acetamide], the IC50 is reported as 1000 to 30000 nM.
For `CS(=O)(=O)Nc1cccc(-c2ccc(-n3ncc4cc(F)c(O)cc43)cc2)c1` [Compound 13.33, N-(4′-(5-Fluoro-6-hydroxy-1H-indazol-1-yl)-[1,1′-biphenyl]-3-yl)methanesulfonamide], the IC50 was 1000 to 30000 nM.
For `CS(=O)(=O)Nc1ccc(-c2ccc(-n3ncc4cc(F)c(O)cc43)cc2)cc1` [Compound 13.34, N-(4′-(5-Fluoro-6-hydroxy-1H-indazol-1-yl)-[1,1′-biphenyl]-4-yl)methanesulfonamide], the IC50 was 100 to 1000 nM.
`NC(=O)c1cccc(-c2ccc(-n3ncc4cc(F)c(O)cc43)cc2)c1` [Compound 13.35, 4′-(5-Fluoro-6-hydroxy-1H-indazol-1-yl)-[1,1′-biphenyl]-3-carboxamide] was tested, and the IC50 was 100 to 1000 nM.
Compound `NC(=O)c1ccc(-c2ccc(-n3ncc4cc(F)c(O)cc43)cc2)cc1` [Compound 13.36, 4′-(5-Fluoro-6-hydroxy-1H-indazol-1-yl)-[1,1′-biphenyl]-4-carboxamide] has an IC50 of 100 to 1000 nM.

Same assay, conditions: 3 h; at 30 uM compound; read-out: HSD17β13 % at 30 uM
In the case of `Oc1cc2c(cnn2-c2ccc(-c3cccnc3)cc2)cc1F` [Compound 13.14, 5-Fluoro-1-(4-(pyridin-3-yl)phenyl)-1H-indazol-6-ol], the inhibition at 30 µM is reported as 40%.
`Oc1cc2c(cnn2-c2ccc(-c3ccncc3)cc2)cc1F` [Compound 13.15, 5-Fluoro-1-(4-(pyridin-4-yl)phenyl)-1H-indazol-6-ol] showed an inhibition at 30 µM of 40%.

Same assay, conditions: 3 h; at 100 uM compound; read-out: HSD17β13 % at 100 uM
In the case of `CC(=O)Nc1ccc(-c2ccc(-n3ncc4cc(F)c(O)cc43)cc2)cc1` [Compound 13.32, N-(4′-(5-Fluoro-6-hydroxy-1H-indazol-1-yl)-[1,1′-biphenyl]-4-yl)acetamide], the inhibition at 100 µM is reported as 40%.
